Measurements from patent US10357516B2 (priority 2008, dated 2019).
Marks after values point to notes of the source that are not given here.

Legend:
P. aeruginosa = assay: Pathogen inactivation in RBC units (log reduction), high level input; type: cell-based, Pseudomonas aeruginosa
Method: Bacteria: Frozen working stocks of bacteria were inoculated into a 500 mL flask containing a mixture of 50% yeast extract media without added glucose and 50% fetal bovine serum. The flasks were incubated overnight in a shaking waterbath set at 37° C. Gram positive bacteria were spiked into the blood product directly from the overnight culture. The overnight cultures of Gram negative bacteria were further subcultured by a 1:1000 dilution into fresh culture medium and incubated as above until they reach log phase as determined by optical density. This log phase growth was spiked into the blood product for PI experiments.
The PI process involves inoculation of RBC units with a culture of the organism to be tested. The typical target input titer of organisms in the RBC units was approximately 10^6 cfu or pfu/mL of RBC. In most cases the organism volume (including any culture medium) was approximately 1% of the RBC unit volume and was not typically greater than 10%. To evaluate inactivation of lower, more physiologically relevant, levels of bacteria, inputs from 10 to 10^5 cfu/unit were used.
The dosing solutions were prepared and added to the units as follows: A 600 mM Glutathione (GSH) solution with 1 equivalent of NaOH was prepared by dissolving 2.8 g of GSH in ˜12 mL of 0.9% saline and 0.9 mL of 10 N NaOH. The appropriate volume of GSH solution was drawn into a 20 mL capacity syringe. The volume used was typically 10 mL of GSH solution per 280 mL of RBC, plus 2 mL line loss to generate 20 mM GSH in the dosed RBC unit. The syringe containing GSH was attached to the mixing container using the filtered lead that shares a Y fitting with the lead connected to the incubation container. The unit was placed on a rocker to facilitate top to bottom mixing during addition of dosing solutions. The GSH was added to the unit while the unit is mixing on the rocker. […]
Log reduction for each unit was determined by taking the log of the ratio of pre-treatment titer to post-treatment titer, where titers were expressed as 10×cfu or pfu/mL. […]

Yersinia enterocolitica = type: cell-based
Escherichia coli = assay: Pathogen inactivation in RBC units (log reduction); type: cell-based
Serratia marcescens = assay: Pathogen inactivation in RBC units (log reduction); type: cell-based
Pseudomonas aerugenosa = assay: Low level input full unit inactivation in RBC units; type: cell-based, Pseudomonas aeruginosa
[1] = system: Vesicular stomatitis virus (VSV); type: cell-based
Staphylococcus aureus = assay: Pathogen inactivation in RBC units (log reduction); type: cell-based
[2] = diluted SAG-M RBC units, 20 mM GSH sodium salt, 0.2 mM S-303, 3 hour incubation, n = 4
[3] = high level input, 130 μM S-303, 13 mM GSH (1 b.e.), diluted with diluent solution, 3 h RT, N = 2
[4] = high level input, 200 μM S-303, 20 mM GSH (1 b.e.), 3 h RT, N = 2
[5] = high level input, 200 μM S-303, 20 mM GSH (1 b.e.), without leukofiltration, 3 h RT, N = 2
[6] = low level input, 200 μM S-303, 20 mM GSH (1 b.e.), RT 20 hours then 37° C. ~20 hours

O=C(CCNc1c2ccccc2nc2ccccc12)OCCN(CCCl)CCCl [S-303, β-alanine, N-(acridin-9-yl), 2-[bis(2-chloroethyl)amino]ethyl ester]
Log Reduction GSH (20 mM), 1 b.e. (P. aeruginosa; P. aeruginosa, 0.2 mM S-303, 20 mM GSH with 1 equivalent NaOH, AS-3 RBC ~60% hematocrit, 3 h at 20 to 25° C.): 1.2 ± 0.4 log
Log Reduction GSH (20 mM), 2 b.e. (P. aeruginosa; P. aeruginosa, previous conditions, GSH neutralized with 2 equivalents NaOH): 1.8 log
Average Log Kill (P. aeruginosa; [2]): 3.35 log
Log Reduction GSH (20 mM), 1 b.e. (Yersinia enterocolitica; Y. enterocolitica, 0.2 mM S-303, 20 mM GSH with 1 equivalent NaOH, AS-3 RBC ~60% hematocrit, 3 h at 20 to 25° C.): 5.0 ± 0.4 log
Log Reduction GSH (20 mM), 2 b.e. (Yersinia enterocolitica; Y. enterocolitica, previous conditions, GSH neutralized with 2 equivalents NaOH): 4.6 log
Average Log Kill (Yersinia enterocolitica; [2]): ≥6.57 log
Mean Log10 Reduction, 40% Hematocrit (Yersinia enterocolitica; [3]): 6.1 log10
Mean Log10 Reduction, 60% Hematocrit (Yersinia enterocolitica; [4]): 4.9 log10
Mean Log10 Reduction, 80% Hematocrit (Yersinia enterocolitica; [5]): 3.4^b log10
Log Reduction GSH (20 mM), 1 b.e. (Escherichia coli): 5.9 ± 0.8 log
Log Reduction GSH (20 mM), 2 b.e. (Escherichia coli): 6.5 log
Average Log Kill (Escherichia coli; [2]): ≥6.69 log
Mean Log10 Reduction, 40% Hematocrit (Escherichia coli; [3]): 6.6 log10
Mean Log10 Reduction, 60% Hematocrit (Escherichia coli; high level input, 200 μM S-303, 20 mM GSH (1 b.e.), 3 h RT, n = 3): 6.1^c log10
Mean Log10 Reduction, 80% Hematocrit (Escherichia coli; [5]): 3.8^b log10
Log Reduction GSH (20 mM), 1 b.e. (Serratia marcescens): 3.7 ± 0.4 log
Log Reduction GSH (20 mM), 2 b.e. (Serratia marcescens): 4.8 log
Average Log Kill (Serratia marcescens; [2]): 4.20 log
Mean Log10 Reduction, 40% Hematocrit (Serratia marcescens; [3]): 3.1 log10
Mean Log10 Reduction, 60% Hematocrit (Serratia marcescens; [4]): 4.5 log10
Mean Log10 Reduction, 80% Hematocrit (Serratia marcescens; [5]): 4.4^b log10
Pathogen inactivation of Pseudomonas aeruginosa (Pseudomonas aerugenosa): complete inactivation
Full Unit Inactivation, 40% Hematocrit (Pseudomonas aerugenosa; low level input, 130 μM S-303, 13 mM GSH (1 b.e.), RT 20 hours then 37° C. ~20 hours): ≥2.5 log10
Full Unit Inactivation, 60% Hematocrit (Pseudomonas aerugenosa; [6]): ≥2.5 log10
Full Unit Inactivation, 80% Hematocrit (Pseudomonas aerugenosa; [6]): ≥2.7 log10
Log Reduction GSH (20 mM), 1 b.e. [1]: >5.9 log
Log Reduction GSH (20 mM), 2 b.e. [1]: 4.2 log
Mean Log10 Reduction, 40% Hematocrit ([1]; N = 2): 5.9 log10
Mean Log10 Reduction, 60% Hematocrit ([1]; N = 2): >5.9 log10
Mean Log10 Reduction, 80% Hematocrit ([1]; N = 2): >6.2^b log10
Log Reduction GSH (20 mM), 1 b.e. (Staphylococcus aureus): 6.0 ± 0.3 log
Log Reduction GSH (20 mM), 2 b.e. (Staphylococcus aureus): 6.4 log
Average Log Kill (Staphylococcus aureus; [2]): 4.15 log
Mean Log10 Reduction, 40% Hematocrit (Staphylococcus aureus; [3]): >7 log10
Mean Log10 Reduction, 60% Hematocrit (Staphylococcus aureus; [4]): 6.7 log10
Mean Log10 Reduction, 80% Hematocrit (Staphylococcus aureus; [5]): ≥5.8^b log10
